From patent US11590116B2 (THERAVANCE BIOPHARMA R&D IP, LLC, priority 2019, dated 2023)
Read-outs that look alike come from different tables or passages of the source.

Assays:
[1] = target: T1, recombinant human ALK5 (TGF-βR1) protein (Homo sapiens, UniProt P36897); assay: Biochemical ALK5 (TGF-βR1) assay to measure pKi (LANCE Ultra ULight kinase assay); settings: apparent pKi from pIC50 by Cheng-Prusoff, read-out: ALK5 pKi (converted)
T1 construct: purchased Life Technologies PR9075A
T1 sequence (P36897 34-503): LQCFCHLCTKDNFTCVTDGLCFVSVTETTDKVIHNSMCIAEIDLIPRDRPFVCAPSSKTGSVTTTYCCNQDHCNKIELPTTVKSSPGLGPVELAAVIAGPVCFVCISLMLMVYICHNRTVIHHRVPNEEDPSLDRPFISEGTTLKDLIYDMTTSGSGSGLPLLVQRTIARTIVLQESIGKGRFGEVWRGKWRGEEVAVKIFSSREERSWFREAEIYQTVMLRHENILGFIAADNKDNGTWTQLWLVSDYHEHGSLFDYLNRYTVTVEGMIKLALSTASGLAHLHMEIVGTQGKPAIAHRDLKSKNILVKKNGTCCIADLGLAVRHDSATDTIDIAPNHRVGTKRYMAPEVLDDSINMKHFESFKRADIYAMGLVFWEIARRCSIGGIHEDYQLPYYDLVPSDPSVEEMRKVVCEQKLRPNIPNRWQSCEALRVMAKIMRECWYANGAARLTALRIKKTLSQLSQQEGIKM
Procedure, shortened: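 Compounds (10 μM to 25 pM) preincubated 60 minutes at room temperature with enzyme, then reaction run 60 minutes at 37° C with ATP added as 125 μM (5× final). Stopped with EDTA plus Eu-anti-phospho-Topoisomerase 2-alpha (Thr1342) antibody, TR-FRET read at 665 nm; pIC50 converted to pKi via Cheng-Prusoff.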

[2] = tested on: TGF-β-stimulated SMAD3 phosphorylation in BEAS-2B cells; assay: Cellular ALK5 potency assay, inhibition of TGF-β stimulated pSMAD3 formation in BEAS-2B cells; assay type: cell-based; settings: Homo sapiens, read-out: BEAS2B pIC50 (converted)
Procedure, shortened: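 SMAD3 phosphorylation was measured by AlphaLISA after 30 min TGF-β stimulation (10 ng/mL final) of BEAS-2B cells preincubated 1 h with compound at 37 °C. Results given as pIC50.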

[3] = inhibition of TGF-β stimulated pSMAD3 formation, BEAS-2B cells

Row | Ki [1] [nM] | Structure (SMILES) | IC50 [2, 3] [nM] | IC50 ([2]; BEAS-2B) [nM]
1 | < 0.0316 | Cc1cccc(-c2[nH]cnc2-c2ccc3ncc(-c4csc(C(=O)O[C@@H]5CCNC5)c4)cc3c2)n1 [Compound 749, [(3R)-pyrrolidin-3-yl] 4-[6-[5-(6-methyl-2-pyridyl)-1H-imidazol-4-yl]-3-quinolyl]thiophene-2-carboxylate] | 25.1 to 158 | 
2 | < 0.0316 | Cc1cccc(-c2nc3ccccn3c2-c2ccc3ncc(-c4cnc5n4CCN5)cc3n2)n1 [Compound 23, 7-(6,7-dihydro-5H-imidazo[1,2-a]imidazol-3-yl)-2-[2-(6-methyl-2-pyridyl)imidazo[1,2-a]pyridin-3-yl]-1,5-naphthyridine] | 25.1 to 158 | 
3 | 0.0398 to 0.316 | CNCCn1cc(-c2cnc3ccc(-c4c(-c5cccc(C)n5)nn5c4CNCC5)cc3c2)cn1 [Compound 327, N-methyl-2-[4-[6-[2-(6-methyl-2-pyridyl)-4,5,6,7-tetrahydropyrazolo[1,5-a]pyrazin-3-yl]-3-quinolyl]pyrazol-1-yl]ethanamine] | 200 to 1260 | 
4 | 0.0398 to 0.316 | Cc1cccc(-c2[nH]cnc2-c2ccc3ncc(-c4csc(C(=O)OCCN5C[C@@H](C)N[C@@H](C)C5)c4)cc3c2)n1 [Compound 1222, 2-[(3S,5R)-3,5-dimethylpiperazin-1-yl]ethyl 4-[6-[5-(6-methyl-2-pyridyl)-1H-imidazol-4-yl]-3-quinolyl]thiophene-2-carboxylate] | 25.1 to 158 | 
5 | < 0.0316 | Cc1nc(-c2n[nH]cc2-c2ccc3ncc(-c4cnn([C@H]5CC[C@@H](N)C5)c4)cc3n2)ccc1F (racemic) [Compound 96, rac-(1R,3S)-3-[4-[6-[3-(5-fluoro-6-methyl-2-pyridyl)-1H-pyrazol-4-yl]-1,5-naphthyridin-3-yl]pyrazol-1-yl]cyclopentanamine] | 25.1 to 158 | 
6 | 0.0398 to 0.316 | Cc1cccc(-c2[nH]cnc2-c2ccc3ncc(-c4csc(C(=O)OCC5CNC5)n4)cc3c2)n1 [Compound 1148, azetidin-3-ylmethyl 4-[6-[5-(6-methyl-2-pyridyl)-1H-imidazol-4-yl]-3-quinolyl]thiazole-2-carboxylate] | 25.1 to 158 | 
7 | < 0.0316 | Cc1cccc(-c2[nH]cnc2-c2ccc3ncc(C4=CCN(Cc5ccccc5)C4)cc3c2)n1 [Compound 232, 3-(1-benzyl-2,5-dihydropyrrol-3-yl)-6-[5-(6-methyl-2-pyridyl)-1H-imidazol-4-yl]quinoline] | 25.1 to 158 | 
8 | < 0.0316 | Cc1cccc(-c2[nH]cnc2-c2ccc3ncc(-c4ccc(C(=O)OC5CCNCC5)cn4)cc3c2)n1 [Compound 1094, 4-piperidyl 6-[6-[5-(6-methyl-2-pyridyl)-1H-imidazol-4-yl]-3-quinolyl]pyridine-3-carboxylate] | 25.1 to 158 | 
9 | 0.0398 to 0.316 | Cc1cccc(-c2n[nH]cc2-c2ccc3ncc(N4CCCNCC4)cc3c2)n1 [Compound 580, 3-(1,4-diazepan-1-yl)-6-[3-(6-methyl-2-pyridyl)-1H-pyrazol-4-yl]quinoline] | 25.1 to 158 | 
10 | 0.0398 to 0.316 | Cc1cccc(-c2n[nH]cc2-c2ccc3ncc(-c4[nH]nc5c4CCNC5)cc3n2)n1 [Compound 622, 2-[3-(6-methyl-2-pyridyl)-1H-pyrazol-4-yl]-7-(4,5,6,7-tetrahydro-2H-pyrazolo[3,4-c]pyridin-3-yl)-1,5-naphthyridine] | 200 to 1260 | 
11 | 0.0398 to 0.316 | Cc1cccc(-c2n[nH]cc2-c2ccc3ncc(N4CCN(C)CC4)cc3n2)n1 [Compound 654, 7-(4-methylpiperazin-1-yl)-2-[3-(6-methyl-2-pyridyl)-1H-pyrazol-4-yl]-1,5-naphthyridine] | 25.1 to 158 | 
12 | 0.0398 to 0.316 | Cc1cccc(-c2[nH]cnc2-c2ccc3ncc(NCCN4CC5(CC(N)C5)C4)cc3c2)n1 [Compound 715, N-[2-(6-amino-2-azaspiro[3.3]heptan-2-yl)ethyl]-6-[5-(6-methyl-2-pyridyl)-1H-imidazol-4-yl]quinolin-3-amine] | 200 to 1260 | 
13 | 0.0398 to 0.316 | Cc1nc(-c2nc3ccccn3c2-c2ccc3ncc(-c4cnn5c4CNCC5)cc3n2)ccc1F [Compound 89, 2-[2-(5-fluoro-6-methyl-2-pyridyl)imidazo[1,2-a]pyridin-3-yl]-7-(4,5,6,7-tetrahydropyrazolo[1,5-a]pyrazin-3-yl)-1,5-naphthyridine] | 25.1 to 158 | 
14 | < 0.0316 | Cc1cccc(-c2[nH]cnc2-c2ccc3ncc(-c4nc5c(s4)CCNC5)cc3c2)n1 [Compound 727, 2-(6-(5-(6-methylpyridin-2-yl)-1H-imidazol-4-yl)quinolin-3-yl)-4,5,6,7-tetrahydrothiazolo[4,5-c]pyridine] | < 20 | 
15 | < 0.0316 | Cc1nc(-c2n[nH]cc2-c2ccc3ncc(N4CC[C@H](N(C)C)C4)cc3n2)ccc1F [Compound 135, (3S)-1-[6-[3-(5-fluoro-6-methyl-2-pyridyl)-1H-pyrazol-4-yl]-1,5-naphthyridin-3-yl]-N,N-dimethyl-pyrrolidin-3-amine] | 25.1 to 158 | 
16 | 0.0398 to 0.316 | Cc1cccc(-c2nc3ccccn3c2-c2ccc3ncc(N4CCCNCC4)cc3c2)n1 [Compound 363, 3-(1,4-diazepan-1-yl)-6-[2-(6-methyl-2-pyridyl)imidazo[1,2-a]pyridin-3-yl]quinoline] | 25.1 to 158 | 
17 | 0.0398 to 0.316 | Cc1ccc(S(=O)(=O)NCC(=O)Nc2cnc3ccc(-c4c[nH]nc4-c4cccc(C)n4)nc3c2)cc1 [Compound 57, N-[6-[3-(6-methyl-2-pyridyl)-1H-pyrazol-4-yl]-1,5-naphthyridin-3-yl]-2-(p-tolylsulfonylamino)acetamide] | 25.1 to 158 | 
18 | 0.0398 to 0.316 | Cc1cccc(-c2[nH]cnc2-c2ccc3ncc(-c4ncc(C(=O)OCC5CNC5)cn4)cc3c2)n1 [Compound 1144, azetidin-3-ylmethyl 2-[6-[5-(6-methyl-2-pyridyl)-1H-imidazol-4-yl]-3-quinolyl]pyrimidine-5-carboxylate] | 25.1 to 158 | 
19 | 0.398 to 3.16 | Cc1cccc(-c2[nH]cnc2-c2ccc3nccc(C(=O)OCC4CNC4)c3c2)n1 [Compound 1038, azetidin-3-ylmethyl 6-[5-(6-methyl-2-pyridyl)-1H-imidazol-4-yl]quinoline-4-carboxylate] | 25.1 to 158 | 
20 | 0.0398 to 0.316 | Cc1cccc(-c2n[nH]cc2-c2ccc3ncc(NCCN4C(C)CNCC4C)cc3n2)n1 (stereo not drawn) [Compound 183, N-[2-(2,6-dimethylpiperazin-1-yl)ethyl]-6-[3-(6-methyl-2-pyridyl)-1H-pyrazol-4-yl]-1,5-naphthyridin-3-amine] | 200 to 1260 | 
21 | 0.0398 to 0.316 | Cc1cccc(-c2n[nH]cc2-c2ccc3ncc(N4CCC5(CCNC5)C4)cc3n2)n1 (stereo not drawn) [Compound 10, 7-(2,7-diazaspiro[4.4]nonan-2-yl)-2-[3-(6-methyl-2-pyridyl)-1H-pyrazol-4-yl]-1,5-naphthyridine] | 200 to 1260 | 
22 | 0.0398 to 0.316 | Cc1cccc(-c2[nH]cnc2-c2ccc3ncc(C(=O)OCCC4CNC4)cc3c2)n1 [Compound 761, 2-(azetidin-3-yl)ethyl 6-[5-(6-methyl-2-pyridyl)-1H-imidazol-4-yl]quinoline-3-carboxylate] | 200 to 1260 | 
23 | < 0.0316 | Cc1cccc(-c2[nH]cnc2-c2ccc3ncc(-c4cn[nH]c4)cc3c2)n1 [Compound 430, 6-[5-(6-methyl-2-pyridyl)-1H-imidazol-4-yl]-3-(1H-pyrazol-4-yl)quinoline] | < 20 | 
24 | 0.398 to 3.16 | Cc1cccc(-c2n[nH]cc2-c2ccc3ncc(N4CC5CNCC54)cc3n2)n1 (stereo not drawn) [Compound 260, 7-(3,6-diazabicyclo[3.2.0]heptan-6-yl)-2-[3-(6-methyl-2-pyridyl)-1H-pyrazol-4-yl]-1,5-naphthyridine] | 200 to 1260 | 
25 | 0.0398 to 0.316 | Cc1cccc(-c2[nH]cnc2-c2ccc3ncc(Nc4ccc(N5CCN(C(C)C)CC5)cn4)cc3n2)n1 [Compound 695, N-[5-(4-isopropylpiperazin-1-yl)-2-pyridyl]-6-[5-(6-methyl-2-pyridyl)-1H-imidazol-4-yl]-1,5-naphthyridin-3-amine] | 25.1 to 158 | 
26 | 0.398 to 3.16 | Cc1cccc(-c2n[nH]cc2-c2ccc3nccc(N4CCC(N(C)C)C4)c3c2)n1 (racemic) [Compound 867, rac-(3S)-N,N-dimethyl-1-[6-[3-(6-methyl-2-pyridyl)-1H-pyrazol-4-yl]-4-quinolyl]pyrrolidin-3-amine] | 200 to 1260 | 

Row | Structure (SMILES) | Ki [1] [nM] | IC50 [2, 3] [nM] | IC50 ([2]; BEAS-2B) [nM]
27 | Cc1cccc(-c2[nH]cnc2-c2ccc3ncc(Nc4nc5n(n4)CCNC5)cc3c2)n1 [Compound 338, 6-(5-(6-methylpyridin-2-yl)-1H-imidazol-4-yl)-N-(5,6,7,8-tetrahydro-[1,2,4]triazolo[1,5-a]pyrazin-2-yl)quinolin-3-amine] | 0.0398 to 0.316 |  | 200 to 1260
